Laboratory results published in patent publication US7553667B2, “Regulation of gene expression using chromatin remodelling factors” (Her Majesty the Queen in right of Canada as represented by …, priority 2002, dated 2009).

Experiments:
bnKCP1 expression = assay: Northern blot of bnKCP1 expression in leaves of treated seedlings; format: in vivo, Brassica napus; settings: for bnKCP1 transcript in leaves after treatment: four-leaf stage seedlings, room temperature, 10 μM inomycin or 20 mM LaCl3
Procedure: Brassica napus L. cv Cascade (winter type), Westar (spring type) and DES010 (spring type) were used for the isolation of genomic DNA and total RNA. Leaves, flowers, stems, siliques and immature seeds were harvested from plants cultured in a controlled-environment greenhouse programmed for a photoperiod of 16 h day and 8 h night. Roots were obtained by culturing sterilized seeds in 0.8% agar plates containing ½ MS medium and 1% sucrose. For cold acclimation (4° C.), abscisic acid (250 μM), drought and high salt (850 mM NaCl) treatments, four-leaf stage seedlings were treated and fourth fully expanded leaf blades were harvested as described by Gao et al. (2002). LaCl3 and inomycin treatments were carried out by watering four-leaf stage plants with 20 mM LaCl3 and 10 μM inomycin, respectively. Plants were covered with SARAN Wrap to slow evaporation.
Total RNA was isolated from the tissues of B. napus L. cv DES010. These included leaves and stems of four-leaf stage seedlings, flowers, immature siliques of adult plants, and roots of cultured seedlings as described by Gao et al. (2001). Probe labelling, hybridization, washing and membrane stripping were performed as described above in the Southern blot analysis Section.

BnSCL1 gene expression = assay: Quantitative one-step RT-PCR of BnSCL1 expression in treated seedlings; format: in vivo, Brassica napus
Procedure: In exogenous applied auxin treatments, four-leaf stage seedlings grown at 20° C. were treated with a foliar spray containing 1 mM 2,4-D and 50 mM sodium phosphate, pH 7.5. The four leaves were collected at 30 min, 60 min and 180 min after the first foliar application of 2,4-D. For the measurement of response of shoots and roots to auxin, sterilized seeds were germinated on plates in a growth chamber with continuous light at 20° C., and 10 dpg seedlings were supplied with varied concentration of 2,4-D. In the auxin transport inhibition experiments, 9 dpg seedlings were incubated in the medium supplemented with 50 μM NPA dissolved in 0.1% DMSO for 24 h before the 2,4-D treatment. For the HDAC inhibitor treatments, 10 mM sodium butyrate was added onto the growth medium and incubated for 24 h followed by exogenous 2,4-D application at varied concentrations.
Total RNA extracted as described above was treated with Amplification Grade Deoxyribonuclease I (GibcoL BRL) following the manufacture's instructions. The RNA samples were then directly used for reverse transcription prior to amplification without purification. The RT-PCR was quantitatively performed and completed in a one-step reaction using […] One-Step RT-PCR System (GibcoL BRL) as described by Gao et al. (2002). Gene-specific sense and anti-sense primers used to generate a 960 bp fragment of Brassica napus Actin, as an internal standard, were as described in Gao et al., (2002). Gene-specific primers for the generation of BnSCL1, BnIAA1 and BnIAA12 fragments were as follows: […]

GST-HDA19 = target: T1, GST-HDA19 (Arabidopsis thaliana, UniProt O22446); assay: GST pulldown affinity assay of bnKCP1 and mutants with GST-HDA19; format: binding; settings: [35S]Met-labeled in vitro translated protein
T1 construct: made in house; host or cells: E. coli BL21-CodonPlus (DE3)-RP
T1 sequence (O22446 1-501): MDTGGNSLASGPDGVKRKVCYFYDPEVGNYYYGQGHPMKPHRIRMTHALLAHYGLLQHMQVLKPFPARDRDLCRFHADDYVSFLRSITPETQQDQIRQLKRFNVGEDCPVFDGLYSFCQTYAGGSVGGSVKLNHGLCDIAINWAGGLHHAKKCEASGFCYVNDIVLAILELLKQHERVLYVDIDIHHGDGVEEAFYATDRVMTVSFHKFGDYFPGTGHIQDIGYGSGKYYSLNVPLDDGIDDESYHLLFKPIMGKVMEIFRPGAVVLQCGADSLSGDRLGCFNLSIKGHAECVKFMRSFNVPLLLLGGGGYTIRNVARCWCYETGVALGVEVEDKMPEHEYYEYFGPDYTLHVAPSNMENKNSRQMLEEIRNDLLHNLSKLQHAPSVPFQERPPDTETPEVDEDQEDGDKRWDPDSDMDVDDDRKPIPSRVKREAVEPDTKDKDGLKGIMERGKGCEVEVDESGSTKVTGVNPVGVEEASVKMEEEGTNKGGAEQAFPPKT
Excerpt: (§1) The full coding regions of the Arabidopsis HAT, Gcn5 (Dr. M. Thomashow, Michigan State University, MI), and HDA19 (Accession # AF195547) were PCR amplified, sequence analyzed and inserted in-frame with the GST (glutathione s-transferase) into the SalI and NotI sites of vector pGEX-6P-2 (Amersham Pharmacia). The forward used for the amplification of Gcn5 was:
(§2) Recombinant pGEX-6P-2 plasmids were used to transform E. coli BL21-CodonPlus (DE3)-RP competent cells (Stratagene). Expression and purification under non-denaturing conditions were carried out as described by Gao et al. (Gao, M.-J. et al., 2002). The GST-Gcn5 and GST-HDA19 fusion proteins were analyzed by 7.5% SDS-PAGE (SDS-polyacrylamide gel electrophoresis) and western blotting with rabbit anti-GST-Pi polyclonal antibody (Chemicon) using ECL Western blotting analysis system (Amersham Pharmacia).
(§3) Full-length bnKCP1 and truncated mutant bnKCP1^1-160 and bnKCP1^1-80 proteins labeled with [^35S]methionine were produced using TNT-Quick Coupled Transcription/Translation System (Promega) according to the manufacture's instructions, with some modifications. A total of 1 μl of RNase inhibitor (GibcoL BRL) and 1 μl of protease inhibitors set (Roche) were added to the lysate reaction. After incubation for 90 min at 30° C., RNase A was added to the reaction to a final concentration of 0.2 mg/ml and incubated for 5 min at the same temperature.
In vitro protein interaction was detected with GST pulldown affinity assays as described by Ahmad et al. (1999) with some modifications. Briefly, 6 μg of GST or 4 μg of GST-fusion protein was incubated with 5 μl of [^35S]Met-labeled translation mixture in 200 μl of bead-binding buffer (50 mM K-phosphate, pH 7.6, 450 mM KCl, 10 mM MgCl2, 10% glycerol, 1% Triton X-100, 1% BSA and 1 μl of diluted 1:12 protease inhibitors set) for 1 h at room temperature. After incubation, 20 μl of 50% slurry of glutathione-Sepharose beads containing 10 mg/ml of BSA and 4 μg of EtBr was mixed with the reaction mixture followed by gentle rotation for 1 h at 4° C. After washing six times with 1.2 ml of bead-binding buffer without BSA and EtBr but containing 12 μl of protease inhibitors set (Roche), the bound proteins were eluted with 30 μl of 2×SDS loading buffer, boiled for 2 min and analyzed by 12% SDS-PAGE. After electrophoresis, the gels were dried, treated with Amplify (Amersham Pharmacia) and subjected to fluorography.

[1] = system: lacZ reporter gene driven by promoter containing GAL4 DNA binding sites; assay: Transactivation assay of bnKCP1 using yeast one-hybrid system; format: cell-based, yeast MaV203; settings: transactivation in yeast
Excerpt: Effector plasmids pDBLeu-bnKCP1^1-160, pDBLeu-bnKCP1^1-80, pDBLeu-bnKCP1^81-215 and pDBLeu-bnKCP1 were constructed by ligating the PCR-amplified fragments ΔbnKCP1^1-160, ΔbnKCP1^1-80, ΔbnKCP1^81-215 and the coding region of bnKCP1 into the SalI/NotI sites of pDBLeu vector (GibcoL BRL) in-frame with the GAL4 DB sequence. The oligonucleotide primers for PCR amplification were as follows: […]
The three reporter genes, lacZ, HIS3 and URA3, which were chromosomally integrated in the genome of MaV203 yeast cells were driven by unrelated promoters containing GAL4 DNA binding sites (GibcoL BRL). For transient assays, the effector constructs or the negative control vector pDBLeu were transferred to the MaV203 yeast cells. The β-galactosidase activity was measured using CPRG (chlorophenol red-β-D-galactopyranoside) according to the manufacturer's instructions (GibcoL BRL). The MaV203 cells containing plasmids pDBLeu-HDA19 and pPC86-bnKCP1 were used as the positive control. In addition, we used three yeast control strains A, B, and C (GibcoL BRL), which were developed to contain plasmid pairs expressing fusion proteins with none, weak and moderately strong protein-protein interaction strength, respectively. Transient Expression of the GUS-bnCKP1 Fusion Protein

GST-Gcn5 = target: T2, GST-Gcn5 (Arabidopsis thaliana, UniProt Q9AR19); assay: GST pulldown affinity assay of bnKCP1 and mutants with GST-Gcn5; format: binding; settings: [35S]Met-labeled in vitro translated protein
T2 construct: made in house; host or cells: E. coli BL21-CodonPlus (DE3)-RP
T2 sequence (Q9AR19 1-568): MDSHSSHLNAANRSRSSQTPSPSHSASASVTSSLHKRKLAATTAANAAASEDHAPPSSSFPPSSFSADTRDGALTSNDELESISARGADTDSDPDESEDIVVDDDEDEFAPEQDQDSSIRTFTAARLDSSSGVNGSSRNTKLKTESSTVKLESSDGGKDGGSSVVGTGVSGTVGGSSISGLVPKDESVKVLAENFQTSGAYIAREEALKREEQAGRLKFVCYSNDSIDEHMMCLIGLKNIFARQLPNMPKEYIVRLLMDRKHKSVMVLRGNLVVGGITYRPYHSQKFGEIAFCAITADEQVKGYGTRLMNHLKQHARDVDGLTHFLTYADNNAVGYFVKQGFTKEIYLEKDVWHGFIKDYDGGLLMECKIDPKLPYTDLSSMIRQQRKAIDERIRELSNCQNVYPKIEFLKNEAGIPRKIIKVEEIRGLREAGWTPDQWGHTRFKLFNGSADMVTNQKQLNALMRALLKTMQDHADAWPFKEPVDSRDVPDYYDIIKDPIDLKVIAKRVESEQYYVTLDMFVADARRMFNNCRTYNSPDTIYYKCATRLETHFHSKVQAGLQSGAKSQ
Excerpt: as §1, §2, §3
In vitro protein interaction was detected with GST pulldown affinity assays as described by Ahmad et al. (1999) with some modifications. […] After washing six times with 1.2 ml of bead-binding buffer without BSA and EtBr but containing 12 μl of protease inhibitors set (Roche), the bound proteins were eluted with 30 μl of 2×SDS loading buffer, boiled for 2 min and analyzed by 12% SDS-PAGE. […]

`[Cl][La]([Cl])[Cl]` [LaCl3] was tested, and the “bnKCP1 transcript in leaves after treatment” value (bnKCP1 expression) was “undetectable”.

`O=C(O)c1ccccc1C(=O)Nc1cccc2ccccc12` [NPA, naphthylphthalamic acid] was tested, and the “BnSCL1 mRNA accumulation profiles in response to auxin in shoots and roots” value (BnSCL1 gene expression; 50 μM for 24 h before 2,4-D at different concentrations) was “not changed”.

For `O=C(O)COc1ccc(Cl)cc1Cl` [2,4-D], the “BnSCL1 expression in roots” value (BnSCL1 gene expression; 10 dpg seedlings, 100 μM required to produce an effect) was “upregulated”, the “expression of BnSCL1 in shoots” value (BnSCL1 gene expression; 10 dpg seedlings, even at the lowest level (1 pM)) was “rapidly downregulated” and the “increase of BnSCL1 mRNA accumulation” value (BnSCL1 gene expression; four-leaf stage seedlings, leaves, within 30 min of 1 mM foliar application, vs untreated plants) was “approximately 50%”.

With `CC1=CC(=O)CC(C)(C)[C@@]1(O)/C=C/C(C)=C\C(=O)O` [ABA, abscisic acid] the “bnKCP1 expression in leaf blades after treatment” value (bnKCP1 expression; exogenous application for up to 8 hours, data not shown) was “not detected”.

inomycin was tested, and the “bnKCP1 transcript in leaves after treatment” value (bnKCP1 expression) was “rapid (2 hrs) but short-lived”.

B1: ΔbnKCP1^1-160: C-terminal truncated mutant of bnKCP1, residues 1-160, lacking the KID domain (protein)
chain: MAGGGPTFSIELSAYGSDLPTDKASGDIPNEEGSGLSRVGSGIWSGRTVDYSSESSSSIGTPGDSEEEDEESEEDNDEEELGLASLRSLEDSLPSKGLSSHYKGKSKSFGNLGEIGSVKEVPKQENPLNKKRRLQIYNKLARKSFYSWQNPKSMPLLPVH
In the case of B1, the “in vitro binding to GST-HDA19” value (GST-HDA19) is reported as “no interaction”, the “influence of deletion of KID or GKSKS domains on β-galactosidase activity” value [1] is reported as “no significant influence” and the “in vitro binding to GST-Gcn5” value (GST-Gcn5) is reported as “no interaction”.

B2: ΔbnKCP1^1-80: C-terminal truncated mutant of bnKCP1, residues 1-80, lacking the KID domain (protein)
chain: MAGGGPTFSIELSAYGSDLPTDKASGDIPNEEGSGLSRVGSGIWSGRTVDYSSESSSSIGTPGDSEEEDEESEEDNDEEE
For B2, the “in vitro binding to GST-HDA19” value (GST-HDA19) was “no interaction”, the “influence of deletion of KID or GKSKS domains on β-galactosidase activity” value [1] was “no significant influence” and the “in vitro binding to GST-Gcn5” value (GST-Gcn5) was “no interaction”.

B3: bnKCPG^188: bnKCP1 with S188 mutated to G188 by site-directed mutagenesis (protein)
chain: MAGGGPTFSIELSAYGSDLPTDKASGDIPNEEGSGLSRVGSGIWSGRTVDYSSESSSSIGTPGDSEEEDEESEEDNDEEELGLASLRSLEDSLPSKGLSSHYKGKSKSFGNLGEIGSVKEVPKQENPLNKKRRLQIYNKLARKSFYSWQNPKSMPLLPVHEDNDDEEGDDGDLSDEERGGDVLARRPGFKNRALKSMSCFALSDLQEEEEEEEDE
With B3 the “in vitro binding to GST-HDA19” value (GST-HDA19) was “significantly reduced binding”.
